Consider 3 molecules from patent US7091248B2, “Treatment of adrenocortical hypersecretion and tumor growth” (priority 2001, dated 2006).

The subject of one data set is mouse adrenal slices. The settings on record: cited from earlier work; for irreversible binding in mouse adrenal cortex slices: ex vivo slice culture.
The target of data set [1] is T1, CYP 11B1 (Homo sapiens, UniProt P15538).
T1 sequence (P15538 25-503): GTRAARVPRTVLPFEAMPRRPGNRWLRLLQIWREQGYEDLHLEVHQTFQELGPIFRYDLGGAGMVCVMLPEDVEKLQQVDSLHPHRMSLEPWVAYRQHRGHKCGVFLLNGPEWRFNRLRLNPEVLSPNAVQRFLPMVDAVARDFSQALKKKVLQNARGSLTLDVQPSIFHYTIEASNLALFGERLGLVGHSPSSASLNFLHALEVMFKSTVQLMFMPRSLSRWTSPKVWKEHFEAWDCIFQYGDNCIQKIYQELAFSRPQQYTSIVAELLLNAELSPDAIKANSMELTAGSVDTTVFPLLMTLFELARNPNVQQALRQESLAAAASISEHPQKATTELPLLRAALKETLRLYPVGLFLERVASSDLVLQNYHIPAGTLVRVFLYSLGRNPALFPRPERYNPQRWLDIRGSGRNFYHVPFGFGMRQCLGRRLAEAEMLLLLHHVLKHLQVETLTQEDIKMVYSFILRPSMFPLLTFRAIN
Details: expressed in transfected cells; host or cells: V79 hamster cells. The note with it: 5 μM; V79 hamster cells transfected with human CYP11B1 DNA; cited from earlier work.

Data set [2] concerns mouse adrenal zona fasciculata cells. The settings on record: cited from earlier work.
In data set [3] the target is T1, CYP 11B1. Details: endogenous in cells; host or cells: H295R human adrenocortical carcinoma cell line. The settings on record: 10 μM; H295R cells; cited from earlier work.
Data set [4] relates to normal adrenal slices. In words: Phosphorautoradiography, semi-quantification of tissue-bound radioactivity in normal adrenal slices. Type of data set: cell-based, human. The note with it: for inhibition of irreversible binding in zona fasciculata/reticularis in metyrapone-exposed slices: metyrapone 50 μM, 24 h of exposure, compared with slices without metyrapone; for amount of tissue-bound radioactivity, MeSO2-[14C]DDE- versus o,p′-[14C]DDD-exposed slices: normal human adrenal slices, phosphorautoradiography. The protocol: Normal adrenal tissue, cortex as well as apparently unaffected medulla, was obtained from a […] MEN 2 patient operated on for an ipsilateral pheochromocytoma. Another normal adrenal was obtained from a patient operated on for a renal carcinoma. Adrenal tissue was placed in ice-cold isotonic saline solution after removal and kept on ice until embedded in 3% agarose. Precision-cut slices (200 μm) were prepared in a Krumdieck tissue slicer (Alabama Research and Development, Munford, Ala., USA) in ice-cold PBS. Slices of roughly equal size were placed in culture medium on a titanium screen holder and incubated for 24 h (after a 1 h pre-incubation). To inhibit CYP-dependent enzyme activity in the slices, incubation wells were supplemented with the CYP11B1 (11β-hydroxylase) inhibitor metyrapone (50 μM) when applicable. To stimulate ACTH-regulated enzyme activity in the slices, the synthetic ACTH-analogue tetracosactide (11 nM) was added. The labeled and unlabeled test substances (MeSO2-DDE and o,p'-DDD) were added to the fresh incubation medium, dissolved in DMSO (not exceeding 0.5% of the total volume). Control slices were cultured in medium containing DMSO only. Phosphorautoradiography: […] The radioactivity in the labeled areas of the adrenal sections was recorded by reading the imaging plate in a Phosphoimager (BAS 1500, Fuji, Japan). For semi-quantification of the tissue-bound radioactivity, a Windows-based bio-imaging analyzer program (ImageGauge, version 3.122, Fujifilm, Japan) was used. […] The values were adjusted according to the difference in specific activity of the two compounds. In order to check the imaging plates with respect to exposure linearity, the same plate was repeatedly exposed to the same sections for 7, 14, 28, 49 and 122 days, reading and erasing the plate between each exposure. […] Intra-exposure variation was measured on three adjacent sections on the same glass-slide.

Data set [5] relates to bilateral non-functioning adrenocortical hyperplasia. In words: Bound radioactivity in slices from a bilateral non-functioning adrenocortical hyperplasia. In kind it is cell-based, human. The method, then:
Tissue from a bilateral non-functioning adrenocortical hyperplasia was obtained from a person.
(§1) Adrenal tissue was placed in ice-cold isotonic saline solution after removal and kept on ice until embedded in 3% agarose. Precision-cut slices (200 μm) were prepared in a Krumdieck tissue slicer (Alabama Research and Development, Munford, Ala., USA) in ice-cold PBS. Slices of roughly equal size were placed in culture medium on a titanium screen holder and incubated for 24 h (after a 1 h pre-incubation).
To inhibit CYP-dependent enzyme activity in the slices, incubation wells were supplemented with the CYP11B1 (11β-hydroxylase) inhibitor metyrapone (50 μM) when applicable. […]
Phosphorautoradiography: Semi-quantification of tissue-bound radioactivity was accomplished by apposing tissue sections to imaging plates (BAS-IP MP 2040S Fuji, Japan) for 49 days. The radioactivity in the labeled areas of the adrenal sections was recorded by reading the imaging plate in a Phosphoimager (BAS 1500, Fuji, Japan). For semi-quantification of the tissue-bound radioactivity, a Windows-based bio-imaging analyzer program (ImageGauge, version 3.122, Fujifilm, Japan) was used.
In order to correlate tissue-bound radioactivity and metabolically active regions in the incubated slices, the labeled areas of the images were marked selectively at 1 pixel resolution (1 pixel=100 μm). […]

A further data set concerns adrenal slices. In words: Steroid hormone secretion from adrenal slices into culture medium (HPLC). Type of data set: cell-based, human. The note with it: 25 μM. The protocol:
as §1
(§2) To inhibit CYP-dependent enzyme activity in the slices, incubation wells were supplemented with the CYP11B1 (11β-hydroxylase) inhibitor metyrapone (50 μM) when applicable. To stimulate ACTH-regulated enzyme activity in the slices, the synthetic ACTH-analogue tetracosactide (11 nM) was added. The labeled and unlabeled test substances (MeSO2-DDE and o,p′-DDD) were added to the fresh incubation medium, dissolved in DMSO (not exceeding 0.5% of the total volume). Control slices were cultured in medium containing DMSO only.
Cortisol, 11-deoxycortisol, corticosterone, 11-deoxycorticosterone, aldosterone, androstenedione and 17-OH-progesterone concentrations in the medium were measured with HPLC using UV detection (241 nm), as described previously (4). The steroid products were separated using a linear gradient of 18–80% acetonitrile (1 ml/min), obtained by diluting acetonitrile/tetrahydrofuran (90/10 vol %) with methanol/water (40/60 vol %), for 32 min. The amounts of steroids were expressed as nmol/slice. The detection level of cortisol/corticosterone was 5 pmol/ml medium. To adjust for differences in slice size, the steroids were expressed as a percentage of the amount of cortisol from the same slice.

Data set [6] has as its system adrenocortical carcinoma cells. In words: Autoradiography of slices from a lymphnode metastasis of an aldosterone producing adrenocortical carcinoma. Type of data set: cell-based, human. The method, then:
Tissue from a lymphnode metastasis of an aldosterone producing adrenocortical carcinoma was obtained from a person.
as §1
Microautoradiography: Slices were incubated with MeSO2-[^14C]DDE (2.6 μM, 35 nCi/ml) or o,p′-[^14C]DDD (3.8 μM, 60 nCi/ml) for 24 h. The labeled substances were added to the medium dissolved in DMSO. Following incubation, slices were fixed overnight in buffered formaldehyde (4%). The fixed slices were dehydrated, embedded in methacrylate, sectioned, and dipped in liquid NTB2 film emulsion, as described elsewhere (4). Autoradiograms were exposed (4° C.) for one year to enable localization of irreversible binding in metyrapone-treated slices. Autoradiograms were developed, stained, and examined as previously described (4).

Data set [7] relates to normal adrenal slices. In words: Microautoradiography of irreversible binding in precision-cut normal adrenal slice culture. Type of data set: cell-based. The settings on record: normal human adrenal slices, 24 h; MeSO2-[14C]DDE 2.6 μM, o,p′-[14C]DDD 3.8 μM. The protocol: Normal adrenal tissue, cortex as well as apparently unaffected medulla, was obtained from a […] MEN 2 patient operated on for an ipsilateral pheochromocytoma. Another normal adrenal was obtained from a patient operated on for a renal carcinoma.
as §1, §2
Microautoradiography: Slices were incubated with MeSO2-[^14C]DDE (2.6 μM, 35 nCi/ml) or o,p′-[^14C]DDD (3.8 μM, 60 nCi/ml) for 24 h. The labeled substances were added to the medium dissolved in DMSO. […]

For the next data set, the system named is rat adrenal slices. The note with it: ex vivo slice culture; cited from earlier work.
The subject of data set [8] is cells from the human adrenal cortex. The note with it: homogenate incubations, read-out: apparent Km-value; cited from earlier work.
Another data set relates to adrenocortical carcinoma. The note with it: cited from earlier work.

Values joined by “and” are separate entries in the source; they are usually repeats but may differ in a detail not shown here. Identical values can stand only once. “Also recorded” adds a separate entry of the source. Like-named read-outs stand apart in the source and are kept apart here.

Take `CC(C)(C(=O)c1cccnc1)c1cccnc1` [metyrapone]: the “effect of metyrapone on irreversible MeSO2-[14C]DDE-binding and corticosterone secretion” value with mouse adrenal slices (mouse adrenal slice culture and mouse adrenal homogenate) is “inhibits”. At CYP 11B1 [1], the “block of synthesis of cortisol from 11-deoxycortisol” value is listed as 86%. In addition, the “effect of metyrapone on irreversible protein binding and toxicity of MeSO2-DDE in the adrenal zona fasciculata” value in data set [2] (mouse, in vivo) is “effectively blocked”.

`CS(=O)(=O)c1cc(C(=C(Cl)Cl)c2ccc(Cl)cc2)ccc1Cl` [MeSO2-DDE, 1-(4-Chloro-3-methylsulphonylphenyl)-1-(4-chlorophenyl)-2,2-dichloroethene]: at CYP 11B1 [3], the “effect on CYP 11B1 enzyme activity” value is “inhibit CYP 11B1 enzyme activity”. Further, in the data set with normal adrenal slices [4], the “inhibition of irreversible binding in zona fasciculata/reticularis in metyrapone-exposed slices” value is listed as “below the detection limit” and the “amount of tissue-bound radioactivity, MeSO2-[14C]DDE- versus o,p′-[14C]DDD-exposed slices” value is reported as “no significant difference”. For the same molecule, the “irreversible binding in mouse adrenal cortex slices” value in the data set with mouse adrenal slices is reported as “strong irreversible binding”. Moreover, in [5], the “irreversible binding in nonfunctional adrenocortical hyperplasia” value is “irreversibly bound”. Moreover, in the data set on adrenal slices, the “11-deoxycortisol in the culture medium” value was “detectable only in the culture medium of MeSO2-DDE-exposed slices”; the “cortisol or corticosterone secretion compared with control slices” value is on record as “no significant difference”; the “effect on steroid secretion compared with control” value was “increased accumulation of 11-deoxycorticosterone, 11-deoxycortisol and androstenedione”. Also, the “11-deoxycorticosterone secretion to the medium” value in the data set with adrenal slices (compared with o,p′-DDD exposed slices and control slices) was “significant increase”. The androstenedione secretion result in the data set on adrenal slices (compared with o,p′-DDD-exposed slices) is reported as “increased”. The “binding to adrenocortical carcinoma cells” value in [6] is reported as “irreversibly bound”. Further, in data set [6] (listed as MeSO2-[^14C]DDE), the “binding to adrenocortical carcinoma cells” value is “selective binding”. In addition, the “labeling of adrenal zones in autoradiograms (irreversible binding)” value in the data set on normal adrenal slices [7] was “high and selective labeling of zona fasciculata and zona reticularis; also recorded: confined to both zona fasciculata and zona reticularis”. Also, the “irreversible binding in rat adrenal slices” value in the data set with rat adrenal slices is listed as “very weak binding”. In data set [8], the Km – broadly, the concentration of substrate that gives half-maximal velocity – is 1.4 µM. In addition, the plasma corticosterone levels entry in data set [2] (mice, following exposure) was “reduced plasma corticosterone levels”. For the same molecule, the “irreversible binding to cellular macromolecules in vivo” value in data set [2] (mouse adrenal zona fasciculata cells) is given as “cell-specific irreversible binding”.

As to `Clc1ccc(C(c2ccccc2Cl)C(Cl)Cl)cc1` (stereo not drawn) [o,p′-DDD, 1-(2-chlorophenyl)-1-(4-chlorophenyl)-2,2-dichloroethane], in the data set with normal adrenal slices [4], the “inhibition of irreversible binding in zona fasciculata/reticularis in metyrapone-exposed slices” value stood at 32% and the “amount of tissue-bound radioactivity, MeSO2-[14C]DDE- versus o,p′-[14C]DDD-exposed slices” value is “no significant difference”. Moreover, the “irreversible binding in mouse adrenal cortex slices” value in the data set on mouse adrenal slices was “negligable irreversible binding”. Moreover, the “irreversible binding in mouse adrenal cortex slices” value with mouse adrenal slices (listed as o,p′-[^14C]DDD) is on record as “very weak”. In the data set with adrenal slices, the “cortisol or corticosterone secretion compared with control slices” value was “no significant difference” and the “effect on steroid secretion compared with control” value was “did not produce any visible effect”. The “binding to adrenocortical carcinoma cells” value in [6] was “selective binding”. Further, the “labeling of adrenal zones in autoradiograms (irreversible binding)” value in the data set on normal adrenal slices [7] was “high and selective labeling of zona fasciculata and zona reticularis; also recorded: localized in a similar way”. Besides, the “irreversible binding in rat adrenal slices” value in the data set on rat adrenal slices is on record as “negligable irreversible binding”. For the same molecule, the Michaelis constant (Km) in data set [8] was 24 µM. Besides, the “patients not cured by surgery who responded to treatment” value in the data set with adrenocortical carcinoma (adrenocortical carcinoma patients) was 194 out of 551. The side effects result in the data set on adrenocortical carcinoma (patients, therapeutic doses) was “dose-dependent side effects in the gastrointestinal tract (nausea, vomiting and diarrhea) and CNS (dizziness and headaches)”. Further, the “therapeutically insufficient plasma concentrations” value in the data set on adrenocortical carcinoma (patients) is “below 10 μg/ml and < 31 μM”.
